Results published in the NIST ThermoML archive (doi:10.1016/j.jct.2010.10.016).
± gives the expanded uncertainty stated by the source.

Test: relative permittivity at various frequencies (dimensionless); xn = mol fraction of the nth substance listed
Settings: 101 kPa, Liquid, Frequency=3 MHz, AC method

CCCCOCCO [2-butoxyethan-1-ol] + C[N+](=O)[O-]
relative permittivity
Settings	293.15 K	298.15 K	303.15 K	308.15 K	313.15 K
x2 = 0	9.78 ± 0.04	9.35 ± 0.04	8.88 ± 0.04	8.39 ± 0.04	7.91 ± 0.04
x2 = 0.05	12.57 ± 0.05	11.95 ± 0.05	11.28 ± 0.05	10.61 ± 0.05	9.96 ± 0.05
x2 = 0.0999	14.98 ± 0.05	14.28 ± 0.05	13.54 ± 0.05	12.78 ± 0.05	12.04 ± 0.05
x2 = 0.2	19.71 ± 0.05	18.87 ± 0.05	18 ± 0.05	17.16 ± 0.05	16.23 ± 0.06
x2 = 0.3	24.36 ± 0.06	23.34 ± 0.06	22.34 ± 0.06	21.34 ± 0.06	20.28 ± 0.06
x2 = 0.4	28.77 ± 0.06	27.63 ± 0.06	26.37 ± 0.06	25.27 ± 0.06	24.13 ± 0.06
x2 = 0.5	32.64 ± 0.06	31.38 ± 0.07	29.98 ± 0.07	28.79 ± 0.06	27.65 ± 0.07
x2 = 0.6	35.72 ± 0.06	34.44 ± 0.07	32.99 ± 0.07	31.85 ± 0.06	30.75 ± 0.07
x2 = 0.7001	38.28 ± 0.06	36.93 ± 0.07	35.47 ± 0.07	34.31 ± 0.06	33.16 ± 0.07
x2 = 0.8	40.28 ± 0.05	38.93 ± 0.07	37.36 ± 0.07	36 ± 0.07	34.68 ± 0.08
x2 = 0.9005	40.93 ± 0.05	39.67 ± 0.07	37.93 ± 0.07	36.51 ± 0.07	35.07 ± 0.08
x2 = 0.95	39.91 ± 0.05	38.78 ± 0.07	37.3 ± 0.07	36.07 ± 0.06	34.84 ± 0.07

C[N+](=O)[O-] [nitromethane] + COCCO
relative permittivity
Settings	293.15 K	298.15 K	303.15 K	308.15 K	313.15 K
x1 = 0.05	19.49 ± 0.05	18.95 ± 0.05	18.48 ± 0.05	17.81 ± 0.05	17.21 ± 0.05
x1 = 0.0998	21.49 ± 0.05	20.81 ± 0.05	20.26 ± 0.05	19.57 ± 0.05	18.85 ± 0.05
x1 = 0.2	25.34 ± 0.05	24.57 ± 0.05	23.89 ± 0.05	23.11 ± 0.05	22.12 ± 0.06
x1 = 0.3	29.02 ± 0.05	28.08 ± 0.05	27.27 ± 0.05	26.43 ± 0.06	25.3 ± 0.06
x1 = 0.4	32.43 ± 0.05	31.42 ± 0.06	30.47 ± 0.06	29.45 ± 0.06	28.29 ± 0.06
x1 = 0.5	35.32 ± 0.05	34.24 ± 0.06	33.22 ± 0.06	32.16 ± 0.06	31.09 ± 0.06
x1 = 0.6	37.67 ± 0.06	36.51 ± 0.06	35.49 ± 0.06	34.47 ± 0.06	33.47 ± 0.06
x1 = 0.7	39.53 ± 0.06	38.31 ± 0.06	37.26 ± 0.06	36.18 ± 0.06	35.12 ± 0.07
x1 = 0.8002	40.88 ± 0.05	39.53 ± 0.06	38.38 ± 0.06	37.08 ± 0.07	35.78 ± 0.08
x1 = 0.8999	40.91 ± 0.06	39.5 ± 0.07	38.23 ± 0.07	36.88 ± 0.07	35.27 ± 0.08
x1 = 0.9503	39.82 ± 0.05	38.54 ± 0.07	37.28 ± 0.06	36.1 ± 0.07	34.7 ± 0.07
x1 = 1	37.31 ± 0.05	36.52 ± 0.05	35.66 ± 0.05	34.92 ± 0.05	34.09 ± 0.05
